Consider 17 compounds from patent US20230242830A1 (priority 2020, published 2023).

For orientation: pIC50 means the IC50 on a negative log10 scale, so that one unit is a factor of ten.

pIC50: −log10 of the molar value.

Assay [1] concerns the target T1, BuChE from equine serum (eqBuChE) (Equus caballus, UniProt P81908).
T1 construct: The BuChE freeze-dried from equine serum (eqBuChE, Sigma Aldrich); purchased Sigma Aldrich; host or cells: equine serum (natural source)
Kind of assay: butyrylcholinesterase inhibition, Ellman spectrometric method. The format is biochemical. The procedure:
(§1) In the extent that the toxic activity of TCP especially involves its action on cholinesterases, the effect of the compounds used according to the invention, as well as comparative compounds, on two cholinesterases was studied. The concentration values of each compound required to inhibit 50% of the activity of two cholinesterases were measured. The higher the 50% inhibitory concentration (IC50), the less the compound is neurotoxic since it has a weaker action on the cholinesterase.
(§2) The inhibitory capacity of the compounds on the acetylcholinesterase (AChE) and butyrylcholinesterase (BuChE) biological activity was assessed using the spectrometric method of Ellman (Ellman et al., Biochem. Pharm. 1961, 7, 88-95).
(§3) The acetylthiocholine and butyrylthiocholine iodide, and 5,5-dithiobis (2-nitrobenzoic) acid (DTNB) were purchased from Sigma Aldrich (Steinheim, Germany).
(§4) The BuChE freeze-dried from equine serum (eqBuChE, Sigma Aldrich) was dissolved in 0.1 M phosphate buffer (pH 7.4) to obtain enzyme stock solutions with an enzymatic activity of 2.5 units/mL. The human erythrocyte AChE (hAChE, aqueous buffer solution, ≥500 units/mg of protein (BCA), Sigma Aldrich) was diluted in 20 mM HEPES buffer, pH 8, with 0.1% Triton X-100 to obtain enzymatic solution with an enzymatic activity of 0.25 unit/mL.
(§5) In the procedure, 100 µL of 0.3 mM DTNB dissolved in phosphate buffer, pH 7.4, were added in 96-well plates, followed by 50 µL solution of the test compound and 50 µL enzyme (final 0.05 U). After 5 minutes of pre-incubation at 25° C., the reaction was initiated by injecting 50 µL of 0.1 mM acetyl or butyryl thiocholine iodide solution. The acetyl or butyryl thiocholine hydrolysis was followed by the formation of yellow 5-thio 2-nitrobenzoate anion as the product of the reaction of DTNB with the thiocholine released by the enzymatic hydrolysis of the acetyl or butyryl thiocholine, at a wavelength of 412 nm, using a microplate reader (Synergy 2, Biotek, Colmar, France). The compounds to be tested were dissolved to 5×10^-3 M in analytical grade DMSO. Donepezil or tacrine were used as reference standards. The absorption increase rate at 412 nm was determined 4 minutes after the addition of the acetyl or butyryl thiocholine iodide solution. The tests were carried out with a blank containing all the compounds except the acetyl or butyryl thiocholine in order to take into account non-enzymatic reactions.
(§6) The percentage of inhibition due to the presence of the test compounds was calculated using the following expression: […]
(§7) wherein vi is the rate calculated in the presence of the inhibitor, and v0 is the enzymatic activity.
(§8) IC50 values were graphically determined by plotting the percentage of inhibition as a function of the logarithm of six inhibitor concentrations in the test solution using the GraphPadPrism software (version 6.01, GraphPad Software, La Jolla, Calif., USA). All the experiments were carried out in n=3.

Assay [2] deals with T2, human erythrocyte AChE (hAChE) (Homo sapiens, UniProt P22303).
T2 construct: The human erythrocyte AChE (hAChE, aqueous buffer solution); purchased Sigma Aldrich; host or cells: human erythrocytes (natural source)
Kind of assay: acetylcholinesterase inhibition, Ellman spectrometric method. The format is biochemical. The procedure: as §1, §2, §3, §4, §5, §6, §7, §8

T2 sequence (P22303 32-617 isoform P22303-2 limits assumed): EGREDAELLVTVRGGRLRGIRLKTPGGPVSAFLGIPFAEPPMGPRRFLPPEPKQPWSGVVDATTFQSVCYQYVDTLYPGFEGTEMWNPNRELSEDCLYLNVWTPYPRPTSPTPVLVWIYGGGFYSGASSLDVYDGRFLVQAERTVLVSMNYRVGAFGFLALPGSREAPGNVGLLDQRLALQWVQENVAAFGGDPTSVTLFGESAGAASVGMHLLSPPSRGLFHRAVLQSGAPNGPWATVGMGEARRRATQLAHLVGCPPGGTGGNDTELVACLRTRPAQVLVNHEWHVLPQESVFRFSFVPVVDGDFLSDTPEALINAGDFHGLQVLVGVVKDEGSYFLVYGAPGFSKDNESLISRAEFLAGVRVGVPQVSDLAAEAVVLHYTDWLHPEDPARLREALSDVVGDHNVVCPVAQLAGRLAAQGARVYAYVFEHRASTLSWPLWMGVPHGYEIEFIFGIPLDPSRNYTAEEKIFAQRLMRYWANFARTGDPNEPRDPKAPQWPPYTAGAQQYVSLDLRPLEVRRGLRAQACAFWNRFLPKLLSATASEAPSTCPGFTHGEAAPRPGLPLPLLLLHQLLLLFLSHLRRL
T1 sequence (P81908 whole entry): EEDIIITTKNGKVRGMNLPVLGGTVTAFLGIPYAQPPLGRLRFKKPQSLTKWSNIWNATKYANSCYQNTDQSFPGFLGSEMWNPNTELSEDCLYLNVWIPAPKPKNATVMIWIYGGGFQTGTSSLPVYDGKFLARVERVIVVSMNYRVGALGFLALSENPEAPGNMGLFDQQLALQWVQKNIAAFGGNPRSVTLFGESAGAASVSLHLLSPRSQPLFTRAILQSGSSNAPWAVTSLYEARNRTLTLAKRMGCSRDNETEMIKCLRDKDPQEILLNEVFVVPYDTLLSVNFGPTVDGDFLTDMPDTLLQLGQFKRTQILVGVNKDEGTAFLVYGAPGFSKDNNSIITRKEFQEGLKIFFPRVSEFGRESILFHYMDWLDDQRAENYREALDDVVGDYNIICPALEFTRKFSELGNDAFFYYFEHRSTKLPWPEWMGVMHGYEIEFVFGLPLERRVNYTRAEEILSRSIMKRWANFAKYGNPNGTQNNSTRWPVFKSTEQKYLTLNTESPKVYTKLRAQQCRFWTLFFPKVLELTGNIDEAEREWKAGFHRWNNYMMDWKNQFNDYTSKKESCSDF

As to `O=P(Oc1ccccc1)(Oc1ccccc1)Oc1ccc(OP(=O)(Oc2ccccc2)Oc2ccccc2)c(-c2ccccc2)c1` [Compound 11, phenylhydroquinone bis(diphenylphosphate)], the results for the negative logarithm of the IC50 (pIC50) in assay [1] and in assay [2] were 4.59 and 4.45, respectively.

`CC(C)(C)c1cc(OP(=O)(Oc2ccccc2)Oc2ccccc2)ccc1OP(=O)(Oc1ccccc1)Oc1ccccc1` [Compound 12, tert-butyl hydroquinone bis(diphenylphosphate)]: the pIC50 in assay [1] is 3.98; in assay [2], 4.62.

Take `CC(C)(C)c1cc(OP(=O)(Oc2ccccc2)Oc2ccccc2)c(C(C)(C)C)cc1OP(=O)(Oc1ccccc1)Oc1ccccc1` [Compound 13, 2,5-di-tert-butyl hydroquinone bis(diphenylphosphate)]: the pIC50 in assay [1] is 3.95; in assay [2], 4.57. On the same counts, the results for `O=P(Oc1ccccc1)(Oc1ccccc1)Oc1ccc(OP(=O)(Oc2ccccc2)Oc2ccccc2)c2ccccc12` [Compound 14, 1,4-dihydroxynaphthalene bis(diphenylphosphate)] are 3.90 and 4.56. On the same counts, the results for `O=P(Oc1ccccc1)(Oc1ccccc1)Oc1ccc2ccc(OP(=O)(Oc3ccccc3)Oc3ccccc3)cc2c1` [Compound 15, 2,7-dihydroxynaphthalene bis(diphenylphosphate)] are 4.05 and 4.54.

`O=C(c1ccc(OP(=O)(Oc2ccccc2)Oc2ccccc2)cc1)c1ccc(OP(=O)(Oc2ccccc2)Oc2ccccc2)cc1` [Compound 16, 4,4′-dihydroxybenzophenone bis(diphenylphosphate)]: the negative logarithm of the IC50 (pIC50) in assay [1] is 3.79; in assay [2] it was 4.40. On the same counts, the results for `O=P(Oc1ccccc1)(Oc1ccccc1)Oc1ccc(S(=O)(=O)c2ccc(OP(=O)(Oc3ccccc3)Oc3ccccc3)cc2)cc1` [Compound 17, bis(4-dihydroxyphenyl)sulfone bis(diphenylphosphate)] are 4.02 and 4.52. On to `O=P(Oc1ccccc1)(Oc1ccccc1)Oc1ccc(C(c2ccc(OP(=O)(Oc3ccccc3)Oc3ccccc3)cc2)(C(F)(F)F)C(F)(F)F)cc1` [Compound 18], for which the negative-log IC50 (pIC50) was 3.85 in assay [1] and 4.47 in assay [2]. On the same counts, the results for `CC(c1ccccc1)(c1ccc(OP(=O)(Oc2ccccc2)Oc2ccccc2)cc1)c1ccc(OP(=O)(Oc2ccccc2)Oc2ccccc2)cc1` [Compound 19, 4,4′-(α-methylbenzylidene)bisphenol bis(diphenylphosphate)] are 3.83 and 4.34. `O=P(Oc1ccccc1)(Oc1ccccc1)Oc1ccc(C2(c3ccc(OP(=O)(Oc4ccccc4)Oc4ccccc4)cc3)CCCCC2)cc1` [Compound 20, 1,1-bis-(4-hydroxyphenyl)cyclohexane bis(diphenylphosphate)]: the figures for the pIC50 in assay [1] and in assay [2] were 3.40 and 4.45, respectively. In the same order, the values of `O=P(Oc1ccccc1)(Oc1ccccc1)Oc1ccc(C2(c3ccc(OP(=O)(Oc4ccccc4)Oc4ccccc4)cc3)c3ccccc3-c3ccccc32)cc1` [Compound 21, 9,9-bis(4-hydroxyphenyl)fluorene bis(diphenylphosphate)] are 3.98 and 4.53. On to `CC(c1ccc(OP(=O)(Oc2ccccc2)Oc2ccccc2)cc1)(c1ccc(OP(=O)(Oc2ccccc2)Oc2ccccc2)cc1)c1ccc(OP(=O)(Oc2ccccc2)Oc2ccccc2)cc1` [Compound 23, 1,1,1-Tris(4-hydroxyphenyl)ethane tris(diphenylphosphate)], for which the pIC50 in assay [1] was 4.15; in assay [2], 4.70. For `CC(C)(C)c1ccc(OP(=O)(Oc2ccc(C(C)(C)C)cc2)Oc2ccc(C(C)(C)C)cc2)cc1` [Compound I2, Tri(p-tert-butylphenyl)phosphate, reference compound], the “inhibition on butyrylcholinesterase / lC50 for eqBuChE, in words” value in assay [1] is “reduced inhibition”. As to `O=P(Oc1ccccc1)(Oc1ccccc1)Oc1cc(OP(=O)(Oc2ccccc2)Oc2ccccc2)c2ccccc2c1` [X, 1,3-dihydroxynaphthalene bis(diphenylphosphate), reference compound], the figures for the pIC50 in assay [1] and in assay [2] were 5.14 and 4.58, respectively. For `O=P(Oc1ccccc1)(Oc1ccccc1)Oc1ccc(OP(=O)(Oc2ccccc2)Oc2ccccc2)c(Cl)c1` [Y, 2-chlorohydroquinone bis(diphenylphosphate), reference compound], the values for the negative logarithm of the IC50 (pIC50) in assay [1] and in assay [2] were 6.00 and 4.39, respectively. For `CC(=O)c1cc(OP(=O)(Oc2ccccc2)Oc2ccccc2)ccc1OP(=O)(Oc1ccccc1)Oc1ccccc1` [Z, (2,5-dihydroxy)1-acetophenone bis(diphenylphosphate), reference compound], the pIC50 was 6.94 in assay [1] and 4.53 in assay [2]. Turning to “dimer diol (C34-36) bis(diphenylphosphate) [Compound 22]”, the “lC50 eqBuChE” value in assay [1] (Table 1, n=3) was 88.3 mg/L. Further, the “lC50 hAChE” value in assay [2] (Table 1, n=3) amounted to 15.6 mq/L.
